Experimental data: publication PMC9586930, “Molecular insights into the distinct signaling duration for the peptide-induced PTH1R activation” (Nature Communications, 2022)
Changes are numbered by the printed parent chain.

Key:
Type in all cases: cell-based
Settings in all cases: for ΔpEC50±SEM: relative to WT, n = 3 in triplicate; for ΔpEC50±SEM / Span±SEM: mean ± SEM; for Span±SEM: window between maximal response (Emax) and vehicle, n = 3
[1] = molecular target: T1, PTH1R V285A mutant (Homo sapiens, UniProt Q03431, V285A); assay: cAMP accumulation assay (GloSensor), PTH1R V285A
T1 construct: a flag-tag was fused to the N terminal of full-length PTH1R (WT or mutant); expressed in transfected cells; host or cells: HEK293T
T1 sequence (Q03431 27-593 V285A): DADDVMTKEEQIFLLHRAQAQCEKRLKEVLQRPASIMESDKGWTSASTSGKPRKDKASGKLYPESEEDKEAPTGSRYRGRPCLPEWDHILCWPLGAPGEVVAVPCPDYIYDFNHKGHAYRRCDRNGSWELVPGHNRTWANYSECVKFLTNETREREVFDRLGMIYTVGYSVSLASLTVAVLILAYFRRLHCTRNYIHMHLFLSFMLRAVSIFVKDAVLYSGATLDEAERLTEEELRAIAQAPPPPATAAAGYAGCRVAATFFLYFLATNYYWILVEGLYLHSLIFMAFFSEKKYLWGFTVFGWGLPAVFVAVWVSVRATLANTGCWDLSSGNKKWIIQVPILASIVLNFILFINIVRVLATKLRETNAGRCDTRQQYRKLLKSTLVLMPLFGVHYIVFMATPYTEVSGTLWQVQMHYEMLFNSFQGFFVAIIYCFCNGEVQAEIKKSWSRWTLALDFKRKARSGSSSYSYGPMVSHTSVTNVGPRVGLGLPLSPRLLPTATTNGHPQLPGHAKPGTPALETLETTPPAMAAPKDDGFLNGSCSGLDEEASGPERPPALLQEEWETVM
Experimental: (§1) Human embryonic kidney 293 T (HEK293T, ATCC: CRL-1573) cells were transfected with a plasmid mixture consisting of pcDNA3.1-flag-PTH1R (WT or mutants) and the cAMP biosensor GloSensor-22F (Promega) at a ratio of 2:1 (see Supplementary Table 7 for a list of primers used in this study). After 24 h, transfected cells were plated onto a 384-well plate, which was treated with cell adherent reagent (Applygen) in advance. After another 12 h, cells were treated with Hank’s balanced salt solution for starvation and then incubated in CO2-independent media containing 4% GloSensor cAMP Reagent (Promega) at a volume of 5 μl per well and incubated for 20 min at RT before measurements for baseline luminescence (Spark Multimode microplate reader, TECAN). Next, test ligands were added at different concentrations from 10^−6 to 10^−13 M before second measurement. Finally, data were normalized to 100% of the maximal PTH (1-34) response for WT PTH1R using a sigmoidal dose-response in GraphPad Prism.
(§2) Statistical analyses were performed on at least three individual datasets and analysed using GraphPad Prism software. Bars represent differences in the calculated agonist potency (pEC50) and maximum agonist response (Emax) for each mutant relative to the WT receptor. Data are mean± s.e.m. from at least three independent experiments, performed in triplicates. ns, not significant, ^nsP > 0.01; ^*P < 0.01; ^**P < 0.001; ^***P < 0.0001 (one-way analysis of variance (ANOVA) followed by Dunnett’s test, compared with the response of the WT). For dose-response experiments, data were normalized and analyzed using nonlinear curve fitting for the log (agonist) versus response (three parameters) curves.

[2] = molecular target: T2, PTH1R L436A mutant (Homo sapiens, UniProt Q03431, L436A); assay: cAMP accumulation assay (GloSensor), PTH1R L436A
T2 construct: a flag-tag was fused to the N terminal of full-length PTH1R (WT or mutant); expressed in transfected cells; host or cells: HEK293T
T2 sequence (Q03431 27-593 L436A): T1 sequence (Q03431 27-593 V285A) with A259V, L410A
Experimental: as §1, §2

[3] = molecular target: T3, PTH1R T430A mutant (Homo sapiens, UniProt Q03431, T430A); assay: cAMP accumulation assay (GloSensor), PTH1R T430A
T3 construct: a flag-tag was fused to the N terminal of full-length PTH1R (WT or mutant); expressed in transfected cells; host or cells: HEK293T
T3 sequence (Q03431 27-593 T430A): T1 sequence (Q03431 27-593 V285A) with A259V, T404A
Experimental: as §1, §2

Substance	span (from the WT) ([1]; PTH1R V2853.33A, replicate 1)	ΔpEC50 (from the WT) ([1]; PTH1R V2853.33A, replicate 1)	span (from the WT) ([1]; PTH1R V2853.33A, replicate 2)	ΔpEC50 (from the WT) ([1]; PTH1R V2853.33A, replicate 2)	span (from the WT) ([1]; PTH1R V2853.33A, replicate 3)	ΔpEC50 (from the WT) ([1]; PTH1R V2853.33A, replicate 3)	ΔpEC50±SEM [1]	ΔpEC50 (from the WT) ([1]; replicate 1)	ΔpEC50 (from the WT) ([1]; replicate 2)	ΔpEC50 (from the WT) ([1]; replicate 3)	Span±SEM [1]	span (from the WT) ([2]; PTH1R L4367.34A, replicate 1)	ΔpEC50 (from the WT) ([2]; PTH1R L4367.34A, replicate 1)	span (from the WT) ([2]; PTH1R L4367.34A, replicate 2)	ΔpEC50 (from the WT) ([2]; PTH1R L4367.34A, replicate 2)	span (from the WT) ([2]; PTH1R L4367.34A, replicate 3)	ΔpEC50 (from the WT) ([2]; PTH1R L4367.34A, replicate 3)	ΔpEC50±SEM [2]	ΔpEC50 (from the WT) ([2]; replicate 1)	ΔpEC50 (from the WT) ([2]; replicate 2)	also measured
H-AVAEIQLMHQRAKWIQDARRRAFLHKLIAEIHTAEI-OH [LA-PTH, long-acting PTH analog, modified PTH/PTHrP hybrid]	160.1	-0.326	211.8	-0.5	140.2	-0.433	-0.42±0.05	-0.326	-0.5	-0.433	170.70±21.34	237.8	0.088	171.3	-0.137	194.5	0.085	0.01±0.07	0.088	-0.137	ΔpEC50 (from the WT) ([2]; replicate 3): 0.085; Span±SEM [2]: 201.20±19.49; span (from the WT) ([3]; PTH1R T430ECL3A, replicate 1): 172.2; ΔpEC50 (from the WT) ([3]; PTH1R T430ECL3A, replicate 1): -1.056; span (from the WT) ([3]; PTH1R T430ECL3A, replicate 2): 195.6; ΔpEC50 (from the WT) ([3]; PTH1R T430ECL3A, replicate 2): -1.067; span (from the WT) ([3]; PTH1R T430ECL3A, replicate 3): 155.2; ΔpEC50 (from the WT) ([3]; PTH1R T430ECL3A, replicate 3): -1.166; ΔpEC50±SEM [3]: -1.10±0.03; ΔpEC50 (from the WT) ([3]; replicate 1): -1.056; ΔpEC50 (from the WT) ([3]; replicate 2): -1.067; ΔpEC50 (from the WT) ([3]; replicate 3): -1.166; Span±SEM [3]: 174.33±11.17
H-AVSEHQLLHDKGKSIQDLRRRELLEKLL-{Aib}-KLHTA-NH2 [ABL, Abaloparatide, an analog of PTHrP, short-acting PTH1R agonist]	158.8	-1.921	185.5	-2.009	175.8	-2.246	-2.06±0.1	-1.921	-2.009	-2.246	173.37±7.80	166.5	-0.45	265	-0.73	245.1	-0.7	-0.63±0.09	-0.45	-0.73	ΔpEC50 (from the WT) ([2]; replicate 3): -0.7; Span±SEM [2]: 225.53±30.07; span (from the WT) ([3]; PTH1R T430ECL3A, replicate 1): 230.5; ΔpEC50 (from the WT) ([3]; PTH1R T430ECL3A, replicate 1): -0.76; span (from the WT) ([3]; PTH1R T430ECL3A, replicate 2): 190.2; ΔpEC50 (from the WT) ([3]; PTH1R T430ECL3A, replicate 2): -0.775; span (from the WT) ([3]; PTH1R T430ECL3A, replicate 3): 191.7; ΔpEC50 (from the WT) ([3]; PTH1R T430ECL3A, replicate 3): -0.865; ΔpEC50±SEM [3]: -0.8±0.03; ΔpEC50 (from the WT) ([3]; replicate 1): -0.76; ΔpEC50 (from the WT) ([3]; replicate 2): -0.775; ΔpEC50 (from the WT) ([3]; replicate 3): -0.865; Span±SEM [3]: 204.13±13.19
H-SVSEIQLMHNLGKHLNSMERVEWLRKKLQDVHNF-OH [PTH, Teriparatide, human PTH 1-34, long-acting peptide agonist of PTH1R]	118.6	-0.181	150.8	-0.072	181.1	-0.211	-0.15±0.04	-0.181	-0.072	-0.211	152.43±15.43	270.9	0.137	204.3	0.015	186.9	0.016	0.06±0.04	0.137	0.015	ΔpEC50 (from the WT) ([2]; replicate 3): 0.016; Span±SEM [2]: 220.70±25.60; span (from the WT) ([3]; PTH1R T430ECL3A, replicate 1): 194; ΔpEC50 (from the WT) ([3]; PTH1R T430ECL3A, replicate 1): 0.303; span (from the WT) ([3]; PTH1R T430ECL3A, replicate 2): 170.6; ΔpEC50 (from the WT) ([3]; PTH1R T430ECL3A, replicate 2): 0.384; span (from the WT) ([3]; PTH1R T430ECL3A, replicate 3): 159.7; ΔpEC50 (from the WT) ([3]; PTH1R T430ECL3A, replicate 3): 0.286; ΔpEC50±SEM [3]: -0.32±0.03; ΔpEC50 (from the WT) ([3]; replicate 1): 0.303; ΔpEC50 (from the WT) ([3]; replicate 2): 0.384; ΔpEC50 (from the WT) ([3]; replicate 3): 0.286; Span±SEM [3]: 174.77±10.12
